Results as given in paper PMC4728427, “Mechanism of allosteric activation of TMEM16A/ANO1 channels by a commonly used chloride channel blocker” (British Journal of Pharmacology, 2016).
Like-named read-outs stand apart in the source and are kept apart here.

Target: T1, Mouse TMEM16A (Mus musculus, UniProt Q8BHY3)
T1 construct: expressed in transfected cells; host or cells: HEK-293T
T1 sequence (Q8BHY3 1-960): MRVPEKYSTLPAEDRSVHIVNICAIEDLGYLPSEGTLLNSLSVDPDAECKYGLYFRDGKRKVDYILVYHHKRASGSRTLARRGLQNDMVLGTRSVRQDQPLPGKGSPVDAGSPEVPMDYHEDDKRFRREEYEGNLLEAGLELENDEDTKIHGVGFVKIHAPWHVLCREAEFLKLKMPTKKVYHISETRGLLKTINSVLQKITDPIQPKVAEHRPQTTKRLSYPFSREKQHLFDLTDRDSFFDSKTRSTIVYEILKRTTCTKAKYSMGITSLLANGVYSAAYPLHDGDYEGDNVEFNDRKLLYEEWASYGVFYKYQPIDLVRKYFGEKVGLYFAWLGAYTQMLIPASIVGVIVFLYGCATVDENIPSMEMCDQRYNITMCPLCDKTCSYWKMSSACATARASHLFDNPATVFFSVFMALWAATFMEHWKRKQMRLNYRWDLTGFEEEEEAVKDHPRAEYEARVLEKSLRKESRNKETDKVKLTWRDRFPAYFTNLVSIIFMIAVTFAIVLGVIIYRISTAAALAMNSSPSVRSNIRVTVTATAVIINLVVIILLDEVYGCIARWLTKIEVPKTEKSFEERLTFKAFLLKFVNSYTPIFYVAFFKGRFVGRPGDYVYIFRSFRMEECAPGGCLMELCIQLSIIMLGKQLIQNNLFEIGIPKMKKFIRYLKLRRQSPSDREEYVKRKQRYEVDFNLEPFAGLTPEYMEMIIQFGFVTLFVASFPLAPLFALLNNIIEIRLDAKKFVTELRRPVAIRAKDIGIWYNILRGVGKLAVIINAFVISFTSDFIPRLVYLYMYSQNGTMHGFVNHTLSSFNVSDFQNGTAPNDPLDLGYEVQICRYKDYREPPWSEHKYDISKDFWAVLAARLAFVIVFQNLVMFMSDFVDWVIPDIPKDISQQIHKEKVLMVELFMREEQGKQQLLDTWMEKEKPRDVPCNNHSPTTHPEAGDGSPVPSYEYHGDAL
Assay: Whole-cell concentration-jump protocol separating A9C block and activation, 300 nM [Ca2+]i
Type: cell-based
Conditions: for Ki: read-out: K i(0); for I a/I 0 for activation / fractional inhibition (I b/I 0): 30 μM [A9C]ext, +70 mV; for EC50 / IC50: [A9C]ext; for EC50: read-out: EC50 (b) activation; for IC50: read-out: IC50 (a) inhibition
Procedure: TMEM16A currents were measured with the whole‐cell or inside‐out patch configuration of the patch‐clamp technique as detailed in the Supporting Information. The exchange of solutions was achieved by using a local perfusion system consisting of eight tubes of 1.2 mm diameter in which the tip of the patch pipette was inserted. In some experiments, ultra‐rapid (<50 ms) changes in A9C concentration ([A9C]) (‘concentration jumps’) were achieved using a computer‐controlled perfusion system (Warner Instruments, Hamden, CT, USA).
The relationship between [A9C] and TMEM16A current inhibition was obtained by measuring the currents at the end of 250 ms V m steps from +20 to +120 mV in 20 mV increments elicited every 2 s from a holding V m of −70 mV. TMEM16A currents measured in the presence of A9C (I b) were normalized to currents measured in the absence of A9C (I 0) and plotted against [A9C]. The concentration–response curves obtained were fit with the Hill equation of the form: (1) Ib/Io=1/1+A9C/Ki^γ,
where K i is the apparent A9C dissociation constant from the inhibitory site and γ is the coefficient of cooperativity (Hill coefficient).
The dose–response curves for activation by A9C were fitted with a modified Hill equation of the form: (2) Ia/Io=1+Amax−1/1+A9C/Kd^h,
where I a is the current in the presence of A9C, A max is the maximal current activation, K d is the apparent A9C dissociation constant from the activating site and h is the coefficient of cooperativity (Hill coefficient).
The relationships between the K i or K d and V m were fitted with the Woodhull equation (Woodhull, 1973): (3) Kx=Kx0exp−δxzFVm/RT.
The subscript ‘x’ stands for either ‘i’ or ‘d’. Thus, K i(0) or K d(0) are the apparent A9C dissociation constants from the inhibitory or activating site at 0 mV, z is the A9C electric valence (−1), δ i or δ d is the fraction of the V m sensed by A9C when bound to the inhibitory or activating site, F is Faraday's constant, R is the universal gas constant and T is the absolute temperature.
To study the activating effect of extracellular A9C on TMEM16A currents in isolation from A9C‐mediated inhibition, the following stimulation protocol was used. Whole‐cell currents were measured in response to a constant V m of +70 mV and in the presence of 300 nM [Ca^2+]i. Under these recording conditions and in the absence of extracellular A9C, the TMEM16A current remained at a constant amplitude (Figure 5A). When A9C was rapidly applied to the bath solution (concentration jump), the current amplitude rapidly declined before increasing to a new steady‐state level (Figure 5A and 5B). As A9C was removed, a dramatic increase in current was observed followed by a rapid return of the current to the level measured in the absence of A9C (Figure 5A and 5B). […] Rapid washout of A9C led to the fast relief of channel block, while the allosteric activating effect appeared to persist. Thus, the inhibitory effect of A9C was estimated by back‐extrapolating the current amplitude (I b) to the point when the drug was added. The current activation (I a) was measured via back‐extrapolation of the transient current spike observed upon drug washout.
Each cell was exposed to various [A9C]ext, and the extent of blockage at each concentration expressed as I b/I 0. The extent of current activation at each [A9C]ext was assessed as I a/I 0.
To determine if the activating effect of [A9C]ext on the TMEM16A current is V m‐dependent, experiments similar to those described above were performed at constant V m of +10 and +40 mV (Figure 5C). From the average data presented in Figure 5C and Table 2, it can be concluded that both inhibition and activation are V m‐dependent.
As outlined in the previous section, the current inhibition and activation induced by extracellular A9C presented a very similar degree of V m‐dependence. […]

[1] = high (154 mM) [Cl−]ext, 300 nM [Ca2+]i
[2] = low (34 mM) [Cl−]ext, 300 nM [Ca2+]i

O=C(O)c1c2ccccc2cc2ccccc12 [A9C, Anthracene‐9‐carboxylic acid]
Ki (300 nM [Ca2+]i (rounded in Discussion)): ~8.4 mM | δ d (300 nM [Ca2+]i, Woodhull fit): 0.66 ± 0.03 | δ i (300 nM [Ca2+]i, Woodhull fit): 0.68 ± 0.03 | Kd (300 nM [Ca2+]i, extracellular A9C, Woodhull fit, read-out: K d(0) (apparent dissociation constant from activating site at 0 mV)): 8.95 ± 0.378 mM | Ki (300 nM [Ca2+]i, extracellular A9C, Woodhull fit): 8.37 ± 0.372 mM | I a/I 0 for activation [1]: 2.0 ± 0.1 | fractional inhibition (I b/I 0) [1]: 0.70 ± 0.02 | I a/I 0 for activation [2]: 8.2 ± 1.1 | fractional inhibition (I b/I 0) [2]: 0.46 ± 0.06 | h (b) Hill coefficient (activation) (V m 10 mV, 300 nM [Ca2+]i): 1.1 ± 0.1 (n = 9) | γ (a) Hill coefficient (inhibition) (V m 10 mV, 300 nM [Ca2+]i): 0.4 ± 0.1 (n = 9) | EC50 (V m 10 mV, 300 nM [Ca2+]i): 5.23 ± 0.582 mM | IC50 (V m 10 mV, 300 nM [Ca2+]i): 4.71 ± 0.478 mM | h (b) Hill coefficient (activation) (V m 40 mV, 300 nM [Ca2+]i): 1.2 ± 0.1 (n = 11) | γ (a) Hill coefficient (inhibition) (V m 40 mV, 300 nM [Ca2+]i): 0.4 ± 0.1 (n = 11) | EC50 (V m 40 mV, 300 nM [Ca2+]i): 1.12 ± 0.126 mM | IC50 (V m 40 mV, 300 nM [Ca2+]i): 0.849 ± 0.14 mM | h (b) Hill coefficient (activation) (V m 70 mV, 300 nM [Ca2+]i): 1.1 ± 0.1 (n = 11) | γ (a) Hill coefficient (inhibition) (V m 70 mV, 300 nM [Ca2+]i): 0.4 ± 0.1 (n = 11) | EC50 (V m 70 mV, 300 nM [Ca2+]i): 0.44 ± 0.069 mM | IC50 (V m 70 mV, 300 nM [Ca2+]i): 0.171 ± 0.021 mM | electric distance of activating binding site (δ d) (Woodhull analysis, rounded): ~ 0.6
